Experimental data: PubChem BioAssay (NCI)
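Grown in 96-well plates, cells were treated for 48 hours with each compound at five concentrations. Insufficient inhibition: endpoint recorded as highest concentration tested. TGI: total growth inhibition.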 *1 amine or outer side, *2 acyl side, *3 side chain or, on linkers, in order; H or OH if unused. Where a SMILES comes first, the peptide text is derived from it. [ ]: non-standard residue; d: D form. X32 = C[C@H](N[*:1])C(=O)C(C)(C)C(=O)[*:2]; Hmpa(2S,3S) = CC[C@H](C)[C@H](O)C(=O)O; NMeY = CN[C@@H](Cc1ccc(O)cc1)C(=O)O; NMeL = CN[C@@H](CC(C)C)C(=O)O; NMeV = CN[C@H](C(=O)O)C(C)C; βAla = NCCC(=O)O

Legend:
Assay in all cases: growth of human tumour cells (NCI), 48 h
CCRF-CEM leukemia = test system: CCRF-CEM leukemia
HCC-2998 colon = test system: HCC-2998 colon
HOP-92 NSCLC = test system: HOP-92 NSCLC
LOX IMVI melanoma = test system: LOX IMVI melanoma
MOLT-4 leukemia = test system: MOLT-4 leukemia
NCI-H460 lung = test system: NCI-H460 lung
RPMI-8226 leukemia = test system: RPMI-8226 leukemia
SF-268 CNS = test system: SF-268 CNS
SK-MEL-28 melanoma = test system: SK-MEL-28 melanoma
SK-OV-3 ovarian = test system: SK-OV-3 ovarian

Compound	TGI (CCRF-CEM leukemia) [µM]	TGI (HCC-2998 colon) [µM]	TGI (HOP-92 NSCLC) [µM]	TGI (LOX IMVI melanoma) [µM]	TGI (MOLT-4 leukemia) [µM]	TGI (NCI-H460 lung) [µM]	TGI (RPMI-8226 leukemia) [µM]	TGI (SF-268 CNS) [µM]	TGI (SK-MEL-28 melanoma) [µM]	TGI (SK-OV-3 ovarian) [µM]
O=C1Oc2cc(O)cc(/C=C/c3ccc(O)cc3)c2[C@@]12c1c(O)cc(O)cc1OC2c1cccc(O)c1 (stereo not given in full)	56.5	46.2	> 100	75.3	> 100	59.6	37.1	> 100	> 100	93.5
COC(=O)c1ccccc1C1CN=NC12Cc1cc(C)ccc1C2=O (stereo not given)	> 100	> 100	> 100	> 100	> 100	> 100	> 100	> 100	> 100	> 100
Cc1cc2c([nH]c3ccccc32)c2c1OC(C)(C)C1C3CC(C)(C)Oc4c(C)cc5c6ccccc6n(c5c43)C21 (stereo not given)	> 100	> 100	> 100	> 100	> 100	> 100	> 100	> 100	> 100	> 100
CC[C@H](C)[C@@H]1OC(=O)CCNC(=O)[C@@H](C)NC(=O)C(C)(C)C(=O)[C@H](C)NC(=O)[C@H](Cc2ccc(OC)cc2)N(C)C(=O)[C@H](C(C)C)N(C)C(=O)CNC(=O)[C@H](CC(C)C)N(C)C(=O)CNC1=O (cyclo(G[NMeL]G[NMeV][NMeY](Me)[X32][dA][βAla][Hmpa(2S,3S)]))	2.2	> 25.1	4.61	10.7	> 26.9	> 50	11.1	6.54	> 36.3	4.11
C(=C\c1ccco1)/c1cccc(/C=C/c2ccco2)n1	> 50	> 50	> 50	> 50	> 50	> 50	> 50	> 50	> 50	> 50
Nn1c(Cc2ccc([N+](=O)[O-])cc2)n[nH]c1=O	> 100	> 100	> 100	> 100	> 100	> 100	> 100	> 100	> 100	> 100
N[C@H]1CCCC[C@@H]1N1C(=O)c2ccccc2C1(O)c1ccc(Cl)cc1 (stereo not given in full)	16.7	3.5	24.9	22.5	19.2	25.2	13.6	27.5	10.4	29.8
CCCCCCCCCCCCCCCCCCN(C)CC(COP(=O)([O-])OCC[N+](C)(C)C)OC (stereo not given)	24.3	24.2	35.6	26	11.3	12.2	18.6	27.5	56.8	27.4
O=C1C(c2c(O)[nH]c3ccc(Br)cc23)=Nc2ccccc21	> 100	13.5	34.9	25.8	> 100	44.6	> 100	24.4	> 100	40.9
